The term IC50 denotes the concentration needed to halve the response being measured.

The experiment concerns the target Enoyl-[acyl-carrier-protein] reductase [NADH] (Mycobacterium tuberculosis, UniProt P9WGR1, S94A).
As for `CC[C@H](C)[C@H]1OC(=O)[C@H](C)[C@H](O)[C@H](Cc2cccnc2)NC(=O)[C@@H](NC(=O)c2ncccc2O)[C@@H](C)OC1=O`, the IC50 was determined as 87.2 µM. The result for `CC[C@@H](C)[C@H]1OC(=O)[C@H](C)[C@H](O)[C@H](Cc2cccnc2)NC(=O)[C@@H](NC(=O)c2ncccc2O)[C@@H](C)OC1=O` reads 31.5 µM; that for `CC[C@H]1OC(=O)[C@H](C)[C@H](O)[C@H](Cc2cccnc2)NC(=O)[C@@H](NC(=O)c2ncccc2O)[C@@H](C)OC1=O`, 127 µM; that for `C[C@H]1OC(=O)[C@@H](Cc2ccccc2)OC(=O)[C@H](C)[C@H](O)[C@H](Cc2cccnc2)NC(=O)[C@H]1NC(=O)c1ncccc1O`, 29.1 µM. On to `CC(C)[C@H]1OC(=O)[C@H](C)[C@H](O)[C@H](Cc2cccnc2)NC(=O)[C@@H](NC(=O)c2ncccc2O)[C@@H](C)OC1=O`, for which the IC50 stood at 32.8 µM. This IC50 and that of the molecule before are within 1.5-fold of each other. The result for `C[C@@H]1C(=O)N[C@H](C2CCCCC2)C(=O)O[C@H](C)[C@H](NC(=O)c2ncccc2O)C(=O)N[C@@H](Cc2cccnc2)[C@@H]1O` reads 291 µM.

The values above are taken from ChEMBL document CHEMBL4376876 (J Med Chem, 2020).
